Values quoted from earlier work as cited in patent US20220387439A1, “ANTI-INFLAMMATORY PHARMACEUTICAL COMPOSITION COMPRISING PROBIOTICS AND ANTIBIOTICS, AND METHOD USING SAME” (priority 2019, published 2022).

Test system: patient with otitis media
Details: Patient 1, otitis media for more than several years; antibiotics taken at other hospitals

SMILES: N[C@@H](C(=O)N[C@@H]1C(=O)N2C(C(=O)O)=C(Cl)CS[C@H]12)c1ccccc1 [cefaclor]
- treatment effect of antibiotics taken earlier: no treatment effect
